The test system of one assay is C57BL/6 mice. In words: Oral glucose tolerance test, glucose only. To be noted: oral 1-100 mg/kg tested, glucose 3 g/kg 15 min after compound.
For a further assay, the target named is T1, GPR119 (Homo sapiens, UniProt Q8TDV5).
T1 sequence (Q8TDV5 1-335): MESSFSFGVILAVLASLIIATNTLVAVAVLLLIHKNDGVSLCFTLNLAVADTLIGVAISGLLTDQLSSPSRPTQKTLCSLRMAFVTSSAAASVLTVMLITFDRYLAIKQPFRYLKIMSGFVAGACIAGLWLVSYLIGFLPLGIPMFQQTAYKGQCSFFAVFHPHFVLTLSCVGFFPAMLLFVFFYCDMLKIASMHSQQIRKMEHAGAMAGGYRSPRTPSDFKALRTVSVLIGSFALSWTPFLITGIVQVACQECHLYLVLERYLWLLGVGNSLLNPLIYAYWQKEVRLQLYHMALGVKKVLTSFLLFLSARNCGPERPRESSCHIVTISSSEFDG
Put plainly: Selectivity: enteroendocrine GPCR GPR119.

The next assay addresses T2, mouse TGR5 (Mus musculus, UniProt Q80SS6).
T2 sequence (Q80SS6 1-329): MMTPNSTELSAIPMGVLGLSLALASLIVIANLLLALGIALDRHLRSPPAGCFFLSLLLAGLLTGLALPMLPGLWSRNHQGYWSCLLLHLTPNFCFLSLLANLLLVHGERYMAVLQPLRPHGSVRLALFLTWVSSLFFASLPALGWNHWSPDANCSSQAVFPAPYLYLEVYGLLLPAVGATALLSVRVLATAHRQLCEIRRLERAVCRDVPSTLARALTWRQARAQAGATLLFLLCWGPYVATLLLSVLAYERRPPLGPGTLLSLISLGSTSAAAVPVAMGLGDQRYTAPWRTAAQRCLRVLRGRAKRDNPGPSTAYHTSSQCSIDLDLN
Put plainly: cAMP production in STC-1 enteroendocrine cells (endogenous TGR5). On the set-up: in cells with endogenous levels of receptor; host or cells: STC-1 (mouse enteroendocrine). To be noted: for EC50: STC-1 cells. The class given is cell-based. The procedure: Both were maintained in Dulbecco’s modified Eagle’s medium (DMEM) containing 10% fetal bovine serum (FBS) and penicillin /streptomycin. Mouse STC-1 cells were obtained from ATCC under agreement with the Cold Spring Harbor Laboratories and maintained in DMEM containing 10% FBS and penicillin /streptomycin. […] NCI-H716 cells were cultured in 96 well plate coated with Matrigel (BD). After 72 hours, cAMP production stimulated with TGR5 agonists was measured using HTRF cAMP assay kit (CISBIO). The level of cAMP in suspensions of STC-1 cells stimulated with increasing concentrations of TGR5 agonists was also determined. After 2 day-culturing, GLP-1 secretion in Matrigel-differentiated NCI-H716 or STC-1 cells was induced by increasing concentrations of TGR5 agonists. The production of GLP-1 was determined using a GLP-1 Assay (7–36) amide kit (Mesoscale Discovery) following the manufacturer’s instructions. For both cAMP and GLP-1, the maximal response for each compound was set to 100% in each cell line.

In a further assay the test system is NCI-H716 cells. Put plainly: GLP-1 secretion in NCI-H716 enteroendocrine cells. It counts as cell-based. To be noted: Homo sapiens. How it is done: HEK-293 cells were obtained from ATCC and a clonal HEK-293 line overexpressing mouse TGR5 was prepared. Both were maintained in Dulbecco’s modified Eagle’s medium (DMEM) containing 10% fetal bovine serum (FBS) and penicillin /streptomycin. Mouse STC-1 cells were obtained from ATCC under agreement with the Cold Spring Harbor Laboratories and maintained in DMEM containing 10% FBS and penicillin /streptomycin. NCI-H716 cells were obtained from ATCC and were maintained in RPMI-1640 with 10% FBS. NCI-H716 cells were cultured in 96 well plate coated with Matrigel (BD). After 72 hours, cAMP production stimulated with TGR5 agonists was measured using HTRF cAMP assay kit (CISBIO). The level of cAMP in suspensions of STC-1 cells stimulated with increasing concentrations of TGR5 agonists was also determined. […] The production of GLP-1 was determined using a GLP-1 Assay (7–36) amide kit (Mesoscale Discovery) following the manufacturer’s instructions. […]
Compound 18 is a novel small molecule agonist of TGR5 developed by Eli Lilly and Company (MW = 508.62, Fig 2A). […] In order to determine potency of compound 18 for the mouse and human TGR5 receptor in cells with endogenous levels of receptor, we measured compound 18-stimulated cAMP production and GLP-1 secretion in both mouse (STC-1) and human (NCI-H716) enteroendocrine cell lines, that we have shown to express TGR5 natively (Fig 1). […]

Like-named read-outs stand apart in the source and are kept apart here. Bounds are passed on as bounds.

Experimental for C57BL/6 mice: For measurement of glucose only, overnight-fasted C57BL/6 mice in a normal light cycle were orally dosed with vehicle or compound, followed by an oral bolus of 3 g/kg glucose at 15 minutes post compound. At 0, 20, 40, 60, and 120 minutes post glucose dose, blood glucose was assessed via glucometers. Resulting raw data was used to generate AUCs. […] At 0, 15, 30, 60, and 120 minutes post glucose dose, blood glucose was assessed via glucometers. Resulting raw data was used to generate AUCs.

For the molecule `CC(=O)N1CCC(C(C)N(C(=O)COc2cccc3sc4nc(C)cn4c23)c2ccc(F)cc2)CC1` (stereo not drawn) [compound 18], the “doses that reduce glucose excursions in OGTT” value with C57BL/6 mice was ≥ 30 mg/kg. Besides, the concentration for a half-maximal effect (EC50) on GPR119 was > 125000 nM; on mouse TGR5 (read-out: EC50, cAMP production), 580 nM; at mouse TGR5 (unit inferred, x-axis in nM, read-out: EC50 STC-1 (Fig 2C inset, cAMP)), 580 nM; with NCI-H716 cells, 2660 nM. For the same molecule, at mouse TGR5 (STC-1 versus NCI-H716 cells), the “potency on the mouse versus the human TGR5 receptor” value is recorded as “more than 5 fold”.

These data come from article PMC4551797 (PLoS ONE, 2015).
